The assay addresses T1, GST-Aurora A (Homo sapiens, UniProt O14965).
T1 construct: N-terminal GST fusion with full length Aurora A (1-403 amino acids); purchased Carna Biosciences 05-101
T1 sequence (O14965 1-403): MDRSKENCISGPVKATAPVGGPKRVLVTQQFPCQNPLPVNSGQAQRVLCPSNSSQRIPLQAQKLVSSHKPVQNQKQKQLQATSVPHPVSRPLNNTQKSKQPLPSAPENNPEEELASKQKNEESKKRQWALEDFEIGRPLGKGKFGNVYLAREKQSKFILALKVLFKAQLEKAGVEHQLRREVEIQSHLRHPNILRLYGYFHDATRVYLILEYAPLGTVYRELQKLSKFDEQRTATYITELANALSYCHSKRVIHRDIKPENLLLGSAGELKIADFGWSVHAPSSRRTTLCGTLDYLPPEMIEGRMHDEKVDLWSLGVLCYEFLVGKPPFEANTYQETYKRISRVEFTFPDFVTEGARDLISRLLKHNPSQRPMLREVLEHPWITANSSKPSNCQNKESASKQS
Description: Aurora A IC50, Caliper LC3000 mobility shift assay. The format is biochemical. The note with it: LC3000 method; 15 uM ATP (the KM value); read-out: Aurora Kinase A Activity (IC50). Put shortly:
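GST-tagged full-length Aurora A (0.067 ng/ul) with 15 uM ATP (KM) and 1 uM FITC-LRRASLG peptide in 100 mM HEPES pH 7.5, 1 mM MgCl2, 1 mM DTT, Brij-35; 90 min at 25 C, EDTA stop. Off-chip mobility shift read of substrate-to-product conversion; IC50 from sigmoidal dose-response.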

pIC50: −log10 of the molar value.

In the case of `O=C(Nc1ccc(Nc2ccnc3[nH]c(=O)c4ccc(F)cc4c23)cc1)c1ccc(F)cc1` [Compound 419, 4-Fluoro-N-[4-(9-fluoro-6-oxo-5,6-dihydro-benzo[c][1,8]naphthyridin-1-ylamino)-phenyl]-benzamide], the pIC50 is greater than 7.96.
In the case of `O=C(Nc1ccc(Nc2ccnc3[nH]c(=O)c4ccc(F)cc4c23)c(F)c1)c1ccc(F)cc1C(F)(F)F` [Compound 420, 4-Fluoro-N-[3-fluoro-4-(9-fluoro-6-oxo-5,6-dihydro-benzo[c][1,8]naphthyridin-1-ylamino)-phenyl]-2-trifluoromethyl-benzamide], the pIC50 is greater than 7.96.
In the case of `O=C(Cn1cc(Nc2ccnc3[nH]c(=O)c4ccc(F)cc4c23)cn1)Nc1ccc(F)cc1` [Compound 421], the pIC50 was 7.00 to 7.96.
As to `O=C(Cn1cc(Nc2ccnc3[nH]c(=O)c4ccc(F)cc4c23)cn1)Nc1ccc(C(F)(F)F)cc1` [Compound 422], the pIC50 is 7.00 to 7.96.
In the case of `CCOC(=O)c1cccc2c1c(=O)[nH]c1nccc(Nc3ccc(NC(=O)c4ccccc4)cc3)c12` [Compound 423, 1-[4-Benzoylamino-phenylamino)-6-oxo-5,6-dihydro-benzo[c][1,8]naphthyridin-7-carboxylic acid ethyl ester], the negative-log IC50 (pIC50) was greater than 7.96.
Turning to `O=C(Cn1cc(Nc2ccnc3[nH]c(=O)c4ccccc4c23)cn1)Nc1ccc(F)cc1` [Compound 430], the pIC50 was less than 7.00.
Take `O=C(Cn1cc(Nc2ccnc3[nH]c(=O)c4ccccc4c23)cn1)Nc1ccc(C(F)(F)F)cc1` [Compound 431]: the pIC50 is less than 7.00.
As for `O=C(Nc1ccc(Nc2ccnc3[nH]c(=O)c4ccccc4c23)cc1)c1cccc(F)c1F` [Compound 432, 2,3-Difluoro-N-[4-(6-oxo-5,6-dihydro-benzo[c][1,8]naphthyridin-1-ylamino)-phenyl]-benzamide], the pIC50 is greater than 7.96.
For the compound `O=C(Nc1ccc(Nc2ccnc3[nH]c(=O)c4ccccc4c23)cc1)c1cccc2c1OCC2` [Compound 433, 2,3-Dihydro-benzofuran-7-carboxylic acid [4-(6-oxo-5,6-dihydro-benzo[c][1,8]naphthyridin-1-ylamino)-phenyl]-amide], the pIC50 is 7.00 to 7.96.
Regarding `O=C(Nc1ccc(Nc2ccnc3[nH]c(=O)c4c(C(=O)O)cccc4c23)cc1)c1ccccc1` [Compound 434, 1-[4-Benzoylamino-phenylamino)-6-oxo-5,6-dihydro-benzo[c][1,8]naphthyridin-7-carboxylic acid], the pIC50 is 7.00 to 7.96.
`CN(C)CCNC(=O)c1cccc2c1c(=O)[nH]c1nccc(Nc3ccc(NC(=O)c4ccccc4)cc3)c12` [Compound 435, 1-[4-Benzoylamino-phenylamino)-6-oxo-5,6-dihydro-benzo[c][1,8]naphthyridin-7-carboxylic acid 2-dimethylamino-ethyl amide]: the pIC50 was greater than 7.96.
For the compound `CN(C)CCCNC(=O)c1cccc2c1c(=O)[nH]c1nccc(Nc3ccc(NC(=O)c4ccccc4)cc3)c12` [Compound 436, 1-(4-Benzoylamino-phenylamino)-6-oxo-5,6-dihydro-benzo[c][1,8]naphthyridine-7-carboxylic acid (3-dimethylamino-propyl)-amide], the pIC50 was 7.00 to 7.96.
`O=C(Nc1ccc(Nc2ccnc3[nH]c(=O)c4c(C(=O)NCCCN5CCOCC5)cccc4c23)cc1)c1ccccc1` [Compound 437, 1-[4-Benzoylamino-phenylamino)-6-oxo-5,6-dihydro-benzo[c][1,8]naphthyridin-7-carboxylic acid 3-morpholin-4-yl-propyl amide]: the pIC50 is greater than 7.96.
Consider `O=C(Nc1ccc(Nc2ccnc3[nH]c(=O)c4c(C(=O)NCCO)cccc4c23)cc1)c1ccccc1` [Compound 438, 1-[4-Benzoylamino-phenylamino)-6-oxo-5,6-dihydro-benzo[c][1,8]naphthyridin-7-carboxylic acid 2-hydroxy ethyl amide], for which the pIC50 was greater than 7.96.

For the origin of these results see patent US8735584B2 (Merck Patent GmbH, priority 2008, dated 2014).
